Measurements taken from US20080312229A1, “Organic Compounds” (Novartis AG, priority 2005, published 2008).

Molecular target: T1, human CRTh2 (Homo sapiens, UniProt Q9Y5Y4)
T1 construct: expressed in transfected cells; host or cells: CHO.K1 (Chinese Hamster Ovary) cells, membrane preparation
T1 sequence (Q9Y5Y4 1-395): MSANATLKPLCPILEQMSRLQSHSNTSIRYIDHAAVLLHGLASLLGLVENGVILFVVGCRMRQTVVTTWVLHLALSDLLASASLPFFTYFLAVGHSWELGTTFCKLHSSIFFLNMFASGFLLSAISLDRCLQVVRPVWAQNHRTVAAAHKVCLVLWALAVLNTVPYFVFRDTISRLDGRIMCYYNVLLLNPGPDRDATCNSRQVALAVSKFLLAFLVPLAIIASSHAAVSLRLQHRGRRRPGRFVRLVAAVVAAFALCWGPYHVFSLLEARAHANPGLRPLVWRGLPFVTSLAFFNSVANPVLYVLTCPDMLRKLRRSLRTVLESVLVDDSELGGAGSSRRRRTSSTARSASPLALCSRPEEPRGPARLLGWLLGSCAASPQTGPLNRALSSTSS
Assay: CRTh2 [3H]-PGD2 binding assay (called SPA binding assay; filtration binding protocol described)
Conditions: competition with [3H]-PGD2 (2.5 nM), CHO.K1-CRTh2 membranes
Method: The binding of CRTh2 modulators is determined using membranes prepared from human CRTh2-expressing Chinese Hamster Ovary cells (CHO.K1-CRTh2). To produce cell membranes CHO.K1-CRTh2 cells cultured in roller bottles are harvested using cell dissociation buffer (Invitrogen). The cells are pelleted by centrifugation (167 g, 5 min). The cell pellet is incubated in hypotonic buffer (15 mM Tris-OH, 2 mM MgCl2, 0.3 mM EDTA, 1 mM EGTA, 1× Complete™ tablet) at 4° C. for 30 min. At 4° C. cells are homogenized using a Polytron® (IKA Ultra Turrax T25) for 5 bursts of 1 second. The homogenate is centrifuged (Beckman Optima TM TL Ultracentrifuge, 48000 g, 30 min at 4° C.). […]
The binding of [^3H]-PGD2 (157 Ci/mmol) to CHO.K1-CRTh2 membranes is determined in the absence (total binding) and presence (non-specific binding) of unlabelled PGD2 (1 μM). […]
The plates are incubated at room temperature on a shaker for 1 hour, and then harvested (Tomtec Harvester 9600) onto GF/C filter plates using wash buffer (10 mM HEPES-KOH, pH 7.4). […] Plates are then counted using a Packard Top Count instrument, Plates are then read on the Packard Topcount with the 3H Scintillation program (1 min per well).
Ki (dissociation constant for the inhibition) values for the CRTh2 modulators are reported. Ki values are determined using Sigma Plot™ software, using the Cheng-Prussoff equation. […]

Cc1c(CC(=O)O)c2cccnc2n1CCc1ccccc1 [Example 1, (2-Methyl-1-phenethyl-1H-pyrrolo[2,3-b]pyridine-3-yl)-acetic acid]
Ki: 716 nM
